The results in this text go back to US12338243B2, “P2X7 modulators” (JANSSEN PHARMACEUTICA NV, priority 2014, dated 2025).

In experiment [1] the target is T1, rat P2X7 (Rattus norvegicus, UniProt Q64663).
T1 sequence (Q64663 1-595): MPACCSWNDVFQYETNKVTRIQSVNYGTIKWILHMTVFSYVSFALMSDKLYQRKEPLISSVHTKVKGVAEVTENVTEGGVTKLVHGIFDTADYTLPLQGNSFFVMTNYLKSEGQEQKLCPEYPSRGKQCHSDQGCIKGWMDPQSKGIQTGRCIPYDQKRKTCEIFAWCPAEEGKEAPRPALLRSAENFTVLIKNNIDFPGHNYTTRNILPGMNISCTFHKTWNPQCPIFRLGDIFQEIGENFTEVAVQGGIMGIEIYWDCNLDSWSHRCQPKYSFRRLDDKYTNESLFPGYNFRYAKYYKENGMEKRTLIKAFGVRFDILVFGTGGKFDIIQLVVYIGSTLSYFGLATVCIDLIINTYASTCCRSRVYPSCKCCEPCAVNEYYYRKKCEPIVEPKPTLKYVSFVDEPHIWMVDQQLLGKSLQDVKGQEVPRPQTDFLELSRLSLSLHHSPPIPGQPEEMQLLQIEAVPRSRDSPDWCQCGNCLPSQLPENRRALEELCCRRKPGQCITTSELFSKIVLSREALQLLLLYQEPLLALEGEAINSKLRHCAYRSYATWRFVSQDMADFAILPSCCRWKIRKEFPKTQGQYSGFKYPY
Kind of experiment: Ca2+ flux (FLIPR) in 1321N1 cells expressing recombinant rat P2X7 channel. Particulars: FLIPR (rat) IC50 (μM), 250 μM BzATP. (Calcium assays in cells follow changes in intracellular calcium, usually with a dye or a luminescent sensor.)
Description: (§3) P2X7 Antagonism in Recombinant Human P2X7 Cells or Recombinant Rat P2X7 Cells: (a) Ca^2+ Flux and (b) Radioligand Binding
(a) Ca^2+ flux: 1321N1 cells expressing the recombinant human or rat P2X7 channel was cultured in HyQ DME/(HyClone/Dulbecco's Modified Eagle Medium) high glucose supplemented with 10% Fetal Bovine Serum (FBS) and appropriate selection marker. Cells were seeded at a density of 25000 cells/well (96-well clear bottom black walled plates) in 100 μl volume/well. On the day of the experiment, cell plates were washed with assay buffer, containing (in mM): 130 NaCl, 2 KCl, 1 CaCl2), 1 MgCl2, 10 HEPES, 5 glucose; pH 7.40 and 300 mOs. After the wash, cells were loaded with the Calcium-4 dye (Molecular Device) and incubated in the dark for 60 minutes. Test compounds were prepared at 250× the test concentration in neat DMSO. Intermediate 96-well compound plates were prepared by transferring 1.2 μL of the compound into 300 μL of assay buffer. A further 3× dilution occurred when transferring 50 μL/well of the compound plate to 100 μL/well in the cell plate. Cells were incubated with test compounds and dye for 30 minutes. […] The fluorescence change was measured 180 seconds after adding the agonist.

For experiment [2], the target named is T1, rat P2X7. Description: Radioligand binding, rat P2X7-1321N1 cell membranes, tritiated A-804598.
Description: as §3
Experiment [3] concerns the target T2, P2X7 (Homo sapiens, UniProt Q99572).
T2 sequence (Q99572 1-595): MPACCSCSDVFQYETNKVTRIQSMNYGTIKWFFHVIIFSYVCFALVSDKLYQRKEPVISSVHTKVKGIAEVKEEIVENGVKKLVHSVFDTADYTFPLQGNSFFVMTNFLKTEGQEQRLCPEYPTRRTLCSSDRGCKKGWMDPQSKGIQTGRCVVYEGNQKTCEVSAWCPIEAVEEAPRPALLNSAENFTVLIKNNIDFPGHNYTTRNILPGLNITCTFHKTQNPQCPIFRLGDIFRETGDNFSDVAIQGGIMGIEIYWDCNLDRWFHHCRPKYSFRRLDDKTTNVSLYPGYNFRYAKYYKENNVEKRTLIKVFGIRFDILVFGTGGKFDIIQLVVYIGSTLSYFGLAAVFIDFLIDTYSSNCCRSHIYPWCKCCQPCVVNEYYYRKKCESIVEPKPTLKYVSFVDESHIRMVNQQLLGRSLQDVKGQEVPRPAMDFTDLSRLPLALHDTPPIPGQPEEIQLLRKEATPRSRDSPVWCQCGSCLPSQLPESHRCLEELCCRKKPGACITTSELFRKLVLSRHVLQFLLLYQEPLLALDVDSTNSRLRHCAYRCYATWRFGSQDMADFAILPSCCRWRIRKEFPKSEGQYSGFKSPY
Description: Radioligand binding, human P2X7-1321N1 cell membranes, tritiated A-804598.
Description: as §3

For experiment [4], the target named is T2, P2X7. Description: P2X7 antagonism in human whole blood (IL-1β release, ELISA). Particulars: LPS 30 ng/ml + 1 mM Bz-ATP. The class given is cell-based. The arrangement: PBMCs were isolated from blood using a Ficoll density gradient technique; endogenous in cells; host or cells: human PBMCs / human whole blood from donors. The protocol:
(§1) P2X7 Antagonism in Human Peripheral Blood Mononuclear Cells (PBMCs) and Human Whole Blood.
(§2) Human blood was collected using a blood donor program. PBMCs were isolated from blood using a Ficoll density gradient technique. Briefly, blood was laid on Ficoll solution and centrifuged at RT for 20 minutes at 2000 rpm. The buffy layer (between red blood cells and plasma) was carefully collected by aspiration, washed with PBS and centrifuged again at 1500 rpm for 15 minutes. The resulting cell pellet was washed and plated on 96 well-plates for experiments. For the Human Whole Blood experiments, 150 μl of human blood was platted on 96 well-plates. Lipopolysaccharide (LPS) (30 ng/ml) was added to each well and incubated for 1 hour. Test compounds were then added and incubated for 30 minutes. The P2X7 agonist, 2′(3′)-O-(4-benzoylbenzoyl) adenosine 5′ triphosphate (Bz-ATP) was then added at a final concentration of 0.5 mM (PBMC) or 1 mM (blood). Cells were incubated for an additional 1.5 hours. At that point, supernatant was collected and stored for IL-1β assay using manufacturer's protocol for enzyme-linked immunosorbent assay (ELISA). Data was expressed as percent control, where control is defined as the difference in IL-1β release in LPS+Bz-ATP samples and LPS only samples. Data was plotted as response (% control) versus concentration to generate IC50 values. […] Data are analyzed and graphed on Graphpad Prism 5. For analysis, each concentration point is averaged from triplicate values and the averaged values are plotted on Graphpad Prism. The IC50 for each compound is then uploaded into 3DX.

Experiment [5] addresses T2, P2X7. Description: Ca2+ flux (FLIPR) in 1321N1 cells expressing recombinant human P2X7 channel. The class given is cell-based. The arrangement: expressed in transfected cells; host or cells: 1321N1 cells. To be noted: 250 μM BzATP. An outline of the steps: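 1321N1 cells expressing recombinant human P2X7, loaded 60 min with Calcium-4 dye in HEPES buffer pH 7.40 (1 mM CaCl2, 1 mM MgCl2), preincubated 30 min with compounds. Fluorescence change recorded 180 seconds after agonist addition.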

For experiment [6], the target named is T2, P2X7. Kind of experiment: P2X7 antagonism in human PBMCs (IL-1β release, ELISA). Type of experiment: cell-based. The arrangement: PBMCs were isolated from blood using a Ficoll density gradient technique; endogenous in cells; host or cells: human PBMCs / human whole blood from donors. To be noted: LPS 30 ng/ml + 0.5 mM Bz-ATP, compound 10 μM. The protocol: as §1, §2
(ELISA stands for enzyme-linked immunosorbent assay.)

For `Cc1nnc2n1CCN(C(=O)c1cccc(C(F)(F)F)c1Cl)C2c1ccccc1` (racemic) [Example 53, (2-chloro-3-(trifluoromethyl)phenyl)(3-methyl-8-phenyl-5,6-dihydro-[1,2,4]triazolo[4,3-a]pyrazin-7(8H)-yl)methanone], the figures for the IC50 on rat P2X7 [1], at P2X7 [4] and at P2X7 [5] were 0.0628 µM, 79 nM and 2 nM, respectively. In addition, the inhibitory constant (Ki) (as a rule, a dissociation constant, usually derived from enzyme kinetics or from competition with a known ligand) at rat P2X7 [2] came to 39.8 nM; at P2X7 [3], 15.8 nM.

With `O=C(c1ccc(F)c(C(F)(F)F)c1Cl)N1CCn2c(nnc2C(F)(F)F)C1c1ccccc1` (single isomer, unassigned) [Example 95, (R*)-(2-chloro-4-fluoro-3-(trifluoromethyl)phenyl)(8-phenyl-3-(trifluoromethyl)-5,6-dihydro-[1,2,4]triazolo[4,3-a]pyrazin-7(8H)-yl)methanone], the IC50 (commonly the concentration at which inhibition is half-maximal) at rat P2X7 [1] worked out at 0.211 µM; on P2X7 [5] it was 9.7 nM. Further, on P2X7 [3], the inhibition constant (Ki) worked out at 31.6 nM. Moreover, the “PBMC 10 μM (% control)” value on P2X7 [6] turned out to be 8.9 % control.

Take `O=C(c1ccc(F)c(C(F)(F)F)c1Cl)N1CCn2c(nnc2C(F)(F)F)C1c1ccccc1` (single isomer, unassigned) [Example 96, (S*)-(2-chloro-4-fluoro-3-(trifluoromethyl)phenyl)(8-phenyl-3-(trifluoromethyl)-5,6-dihydro-[1,2,4]triazolo[4,3-a]pyrazin-7(8H)-yl)methanone]: the IC50 at rat P2X7 [1] was greater than 10 µM; on P2X7 [5] it was 4890 nM. Also, the “PBMC 10 μM (% control)” value at P2X7 [6] was 43.6 % control.

On to `O=C(c1ccnc(C(F)(F)F)c1Cl)N1CCn2c(nnc2C(F)(F)F)C1c1ccccc1` (single isomer, unassigned) [Example 99, (R*)-(3-chloro-2-(trifluoromethyl)pyridin-4-yl)(8-phenyl-3-(trifluoromethyl)-5,6-dihydro-[1,2,4]triazolo[4,3-a]pyrazin-7(8H)-yl)methanone], for which the half-maximal inhibitory concentration (IC50) on rat P2X7 [1] was 0.0348 µM; at P2X7 [5], 9.1 nM. Moreover, the Ki at rat P2X7 [2] stood at 6.3 nM; at P2X7 [3] it was 17.4 nM. The “PBMC 10 μM (% control)” value on P2X7 [6] was determined as 4.9 % control.

With `O=C(c1ccnc(C(F)(F)F)c1Cl)N1CCn2c(nnc2C(F)(F)F)C1c1ccccc1` (single isomer, unassigned) [Example 100, (S*)-(3-chloro-2-(trifluoromethyl)pyridin-4-yl)(8-phenyl-3-(trifluoromethyl)-5,6-dihydro-[1,2,4]triazolo[4,3-a]pyrazin-7(8H)-yl)methanone], the “PBMC 10 μM (% control)” value at P2X7 [6] was determined as 102.0 % control.

Take `C[C@H]1Cn2c(nnc2-c2ccco2)CN1C(=O)c1cccc(C(F)(F)F)c1Cl` [Example 24, (S)-(2-chloro-3-(trifluoromethyl)phenyl)(3-(furan-2-yl)-6-methyl-5,6-dihydro-[1,2,4]triazolo[4,3-a]pyrazin-7(8H)-yl)methanone]: the 50% inhibitory concentration (IC50) on rat P2X7 [1] was found to be 0.0047 µM; at P2X7 [4] it was 25 nM; at P2X7 [5], 6.8 nM. This compound also registered a Ki at P2X7 [3] of 21.9 nM.

`C[C@H]1Cn2c(nnc2-c2cc(F)c(F)c(F)c2)CN1C(=O)c1cccc(C(F)(F)F)c1Cl` [Example 30, (S)-(2-chloro-3-(trifluoromethyl)phenyl)(6-methyl-3-(3,4,5-trifluorophenyl)-5,6-dihydro-[1,2,4]triazolo[4,3-a]pyrazin-7(8H)-yl)methanone]: the half-maximal inhibitory concentration (IC50) on rat P2X7 [1] is 0.927 µM; at P2X7 [4], 1590 nM; on P2X7 [5], 83.8 nM. Besides, the Ki on P2X7 [3] amounted to 50.1 nM.

On to `O=C(c1cccc(C(F)(F)F)c1Cl)N1CCn2c(nnc2C(F)(F)F)[C@H]1c1ccccc1` [Example 97, (R)-(2-chloro-3-(trifluoromethyl)phenyl)(8-phenyl-3-(trifluoromethyl)-5,6-dihydro-[1,2,4]triazolo[4,3-a]pyrazin-7(8H)-yl)methanone], for which the concentration for half-maximal inhibition (IC50) on rat P2X7 [1] came out at 0.0428 µM; at P2X7 [5], 7.8 nM. For the same compound, the inhibition constant Ki was 4.7 nM at rat P2X7 [2] and 12.6 nM at P2X7 [3].

Consider `O=C(c1cccc(Cl)c1Cl)N1CCn2c(nnc2C(F)(F)F)[C@H]1c1ccccc1` [Example 102, (R)-(2,3-dichlorophenyl)(8-phenyl-3-(trifluoromethyl)-5,6-dihydro-[1,2,4]triazolo[4,3-a]pyrazin-7(8H)-yl)methanone], for which the IC50 amounted to 0.488 µM on rat P2X7 [1] and 10.5 nM on P2X7 [5]. Moreover, the values for the inhibition constant Ki at rat P2X7 [2] and at P2X7 [3] were 29.5 nM and 10 nM, respectively.

With `O=C(c1cccc(C(F)(F)F)c1Cl)N1CCn2c(C(F)F)nnc2[C@H]1c1ccccc1` [Example 108, (R)-(2-chloro-3-(trifluoromethyl)phenyl)(3-(difluoromethyl)-8-phenyl-5,6-dihydro-[1,2,4]triazolo[4,3-a]pyrazin-7(8H)-yl)methanone], the concentration for half-maximal inhibition (IC50) is 0.0816 µM at rat P2X7 [1] and 8.6 nM on P2X7 [5]. Further, the inhibitory constant (Ki) on rat P2X7 [2] turned out to be 10 nM; at P2X7 [3], 5.8 nM.

On to `O=C(c1cccc(Cl)c1Cl)N1CCn2c(C(F)F)nnc2[C@H]1c1ccccc1` [Example 110, (R)-(2,3-dichlorophenyl)(3-(difluoromethyl)-8-phenyl-5,6-dihydro-[1,2,4]triazolo[4,3-a]pyrazin-7(8H)-yl)methanone], for which the IC50 on rat P2X7 [1] amounted to 0.441 µM; on P2X7 [5], 3.4 nM. Besides, the inhibition constant Ki on rat P2X7 [2] was determined as 16.6 nM; at P2X7 [3], 7.9 nM.
